Experimental data published in PubChem BioAssay AID652053 (Broad Institute, 2013).

Test system: Huh7 psiCHECK-miR122 Renilla luciferase reporter, 48 h
Assay: miR-122 inhibitors in Huh7 reporter cells, dose response, cell-based, Huh7 psiCHECK-miR122, Renilla luciferase, cherry-pick (AID 652053)

Compound: COc1ccc(C(C)(C)C)cc1S(=O)(=O)n1ccnc1C
- AC40: 4.82 µM

Compound: C[C@@H]1CN([C@@H](C)CO)C(=O)c2cccc(NC(=O)c3ccc(-c4nccs4)cc3)c2O[C@@H]1CN(C)Cc1ccc(C(=O)Nc2ccccc2N)cc1
- AC40: 4.9 µM

Compound: Cc1ccc(S(=O)(=O)NCCC2=CCCCC2)cc1
- AC40: 5.27 µM

Compound: C[C@H](CO)N1C[C@H](C)[C@H](CN(C)Cc2ccc(Cl)c(Cl)c2)Oc2c(NC(=O)Nc3ccc4c(c3)OCO4)cccc2C1=O
- AC40: 4.58 µM

Compound: O=S(=O)(Nc1cccc(-n2cnnn2)c1)c1cc(Br)ccc1Br
- AC40: 4.94 µM

Compound: COc1cc(NS(=O)(=O)c2ccc(OC)c(C)c2C)c(OC)cc1Cl
- AC40: 3.5 µM

Compound: Cc1ccccc1-c1cnc(C(O)c2ccc(F)c(F)c2)[nH]1 (configuration not stated)
- AC40: 6.78 µM

Compound: O=C(N/N=C/c1ccc(Cl)s1)C(O)c1ccccc1 (configuration not stated)
- AC40: 1.17 µM

Compound: CCCCNS(=O)(=O)c1ccc2nc(SCC(=O)Nc3sccc3C#N)[nH]c2c1
- AC40: 0.553 µM

Compound: Cc1ccccc1C(=O)Nc1ccc(Br)c(C)n1
- AC40: 3.17 µM

Compound: Cc1ccc(C)c(S(=O)(=O)NCCCc2ccccc2)c1
- AC40: 3.15 µM

Compound: COc1cc2oc3ccccc3c2cc1N(CC(=O)N(C)C)S(=O)(=O)c1ccccc1
- AC40: 4.54 µM

Compound: O=C(CN(C1CCCCC1)S(=O)(=O)c1ccc(F)cc1)Nc1ccc2c(c1)OCO2
- AC40: 6.36 µM

Compound: CN1C(=O)c2cc(NC(=O)NCc3ccccc3)ccc2OC[C@@H]2O[C@H](CC(=O)NCC3CCCCC3)CC[C@@H]21
- AC40: 0.358 µM

Compound: CC(=O)c1ccc(NS(=O)(=O)c2ccc3c(c2)N(C)CCO3)cc1
- AC40: 3.6 µM

Compound: C=CCN(CC=C)S(=O)(=O)c1ccc2nc(NC(=O)C(C)C)sc2c1
- AC40: 8.29 µM

Compound: O=C(Nc1ccc(N2CCOCC2)c(S(=O)(=O)Nc2cc(Cl)ccc2Cl)c1)c1cccnc1
- AC40: 0.681 µM

Compound: C[C@H](CO)N1C[C@H](C)[C@@H](CN(C)C(=O)Nc2ccc(C(F)(F)F)cc2)Oc2c(NC(=O)C3CCOCC3)cccc2C1=O
- AC40: 29.8 µM

Compound: COc1ccc(NC(=O)Nc2cccc3c2O[C@H](CN(C)Cc2ccc4c(c2)OCO4)[C@@H](C)CN([C@H](C)CO)C3=O)cc1
- AC40: 22.8 µM

Compound: O=C(C[C@@H]1C[C@H]2c3cc(NS(=O)(=O)c4ccc(F)cc4)ccc3O[C@H]2[C@H](CO)O1)NCc1ccc(-c2ccccc2)cc1
- AC40: 5.24 µM

Compound: CCCCCNS(=O)(=O)c1cc2c3c(c1)CCC(=O)N3CCC2
- AC40: 4.75 µM

Compound: COC(=O)c1cc(S(=O)(=O)Nc2cc(OC)cc(OC)c2)cn1C
- AC40: 2.37 µM

Compound: Cn1c(=O)n(C)c2cc(NS(=O)(=O)c3ccc(C(C)(C)C)cc3)ccc21
- AC40: 8.31 µM

Compound: O=C(c1ccccc1F)N1C[C@@H]2[C@H](c3ccccc31)[C@H](CO)N2C(=O)c1ccc(F)cc1
- AC40: 21 µM

Compound: Cc1ccc(NS(=O)(=O)c2cc(C(=O)Nc3cccc([N+](=O)[O-])c3)ccc2C)cc1
- AC40: 2.5 µM

Compound: CC(=Nc1ccccc1)C1=C(O)C(Cc2cccc(F)c2)NC1=O (configuration not stated)
- AC40: 3.86 µM

Compound: Cc1ccc(NC(=O)Cc2cn(C)c3ccccc23)cc1F
- AC40: 7.09 µM

Compound: COc1ccc(S(=O)(=O)NCCSC(C)(C)C)c(Cl)c1Cl
- AC40: 8.16 µM

Compound: CCOc1cc(C)c(S(=O)(=O)NCCCn2ccnc2)cc1C
- AC40: 5.88 µM

Compound: COc1ccc(C)cc1S(=O)(=O)NC1CCCC1
- AC40: 6.24 µM

Compound: C[C@@H]1CN([C@@H](C)CO)C(=O)c2cccc(NC(=O)c3cnccn3)c2O[C@H]1CN(C)Cc1ccc(C(F)(F)F)cc1
- AC40: 19.2 µM

Compound: CCC(C)c1ccc(NC(=S)NCc2cccs2)cc1 (configuration not stated)
- AC40: 10.1 µM

Compound: CCCCNS(=O)(=O)c1ccc2nc(-c3cccnc3)cc(C(=O)NCCOC)c2c1
- AC40: 1.18 µM

Compound: COc1ccccc1NS(=O)(=O)c1cc(NC(=O)CCC(=O)c2cccs2)ccc1Cl
- AC40: 21.7 µM

Compound: Cc1ccccc1S(=O)(=O)N1CC[C@@H]2[C@@H](CO)Nc3ccc(-c4ccc(F)cc4)cc3[C@@H]21
- AC40: 1 µM

Compound: CC(C)c1ccc(S(=O)(=O)Nc2ccc(-n3cnnn3)cc2)cc1
- AC40: 2.55 µM

Compound: CCOc1cc(N2CCOCC2)c(OCC)cc1NS(=O)(=O)c1ccc(Cl)s1
- AC40: 32.9 µM

Compound: Cc1cccc(C(O)c2ncc(-c3ccccc3F)[nH]2)c1C (configuration not stated)
- AC40: 5.74 µM

Compound: Cc1ccc(C(C)C)cc1S(=O)(=O)Nc1cccnc1
- AC40: 2.62 µM

Compound: Cc1ccc(S(=O)(=O)Nc2ccc3c(c2)C(=O)N([C@@H](C)CO)C[C@H](C)[C@H](CN(C)C(=O)Nc2ccc(F)cc2)OCCCC[C@@H](C)O3)cc1
- AC40: 1.86 µM

Compound: O=C(c1cccc(F)c1)N1C[C@H]2[C@@H](c3ccccc31)[C@@H](CO)N2C(=O)c1ccc(F)cc1
- AC40: 1.08 µM

Compound: COc1ccc(NS(=O)(=O)c2cc(NC(=O)CCc3ccc(OC)c(OC)c3)ccc2N2CCOCC2)cc1
- AC40: 1.77 µM

Compound: COc1ccc(CN(C(=O)c2ccc(-c3ccccc3)[nH]2)C(C(=O)NCC2CCCO2)c2ccc(C)o2)cc1 (configuration not stated)
- AC40: 5.58 µM

Compound: CCOc1cc(S(=O)(=O)Nc2cc(C)cc(C)c2)ccc1Cl
- AC40: 1.99 µM

Compound: COc1cc(C)c(C(C)C)cc1S(=O)(=O)N1CCN(C)CC1
- AC40: 7.96 µM

Compound: C[C@H]1CN([C@@H](C)CO)S(=O)(=O)c2ccc(C#CCN(C)C)cc2O[C@@H]1CN(C)Cc1ccc2c(c1)OCO2
- AC40: 3.68 µM

Compound: C/C(CC(=O)Nc1ccccn1)=N\NC(=O)c1ccccc1O
- AC40: 2.59 µM

Compound: Cc1ccc(S(=O)(=O)Nc2ccc3c(c2)CC(=O)N([C@H](C)CO)C[C@@H](C)[C@H](CN(C)Cc2ccc(C(=O)Nc4ccccc4N)cc2)O3)cc1
- AC40: 17.2 µM

Compound: Cc1cc2c(cc1S(=O)(=O)NCCc1ccccc1)NC(=O)CO2
- AC40: 4.41 µM

Compound: Cc1ccc(C)c(S(=O)(=O)Nc2ccc3scnc3c2)c1
- AC40: 0.899 µM

Compound: Cc1cc(S(=O)(=O)Nc2ccc3cn[nH]c3c2)c(C)cc1Cl
- AC40: 2.11 µM

Compound: Cc1cc(C(=O)Nc2cccc3c2O[C@H](CN(C)Cc2ccc(C(F)(F)F)cc2)[C@@H](C)CN([C@H](C)CO)C3=O)n(C)n1
- AC40: 0.943 µM

Compound: O=C(NC1CCCC1)C(c1ccccc1)N(Cc1ccc2c(c1)OCO2)C(=O)Cc1cccs1 (configuration not stated)
- AC40: 6.85 µM

Compound: Cc1ccc(O)c(NC(=O)c2cccc(S(=O)(=O)N3CCCCC3)c2)c1
- AC40: 2.39 µM

Compound: O=S(=O)(NCc1ccco1)c1ccc2ccccc2c1
- AC40: 2.62 µM

Compound: NC(=O)Cn1cc(/C=N\NS(=O)(=O)c2ccc(Cl)cc2)c2ccccc21
- AC40: 3.75 µM

Compound: COCCNC(=O)C[C@@H]1CC[C@H]2[C@H](COc3ccc(NC(=O)Cc4ccccc4)cc3C(=O)N2C)O1
- AC40: 1.34 µM

Compound: CC(=O)N1CC(C)Sc2ccc(S(=O)(=O)NCc3ccc(F)cc3)cc21 (configuration not stated)
- AC40: 4.49 µM

Compound: Cc1ccc(SCCNC(=O)c2ccc(C)c(S(=O)(=O)Nc3cccc(C)c3)c2)cc1
- AC40: 3.74 µM

Compound: Cc1cc(-c2ccc(C(C)C)c(S(=O)(=O)NCc3ccco3)c2)on1
- AC40: 1.22 µM

Compound: COc1cc(C)c(Cl)cc1S(=O)(=O)NCc1ccco1
- AC40: 1.18 µM

Compound: C[C@H](CO)N1C[C@H](C)[C@H](CN(C)Cc2ccc(C(=O)Nc3ccccc3N)cc2)Oc2ccc(NS(=O)(=O)c3cn(C)cn3)cc2CC1=O
- AC40: 27 µM

Compound: COc1ccc(S(=O)(=O)N2CC[C@@H]3[C@@H](CO)N(C)c4ccc(-c5ccc(F)cc5)cc4[C@@H]32)cc1
- AC40: 6.93 µM

Compound: COc1ccc(NS(=O)(=O)c2cc(NC(=O)c3ccc(Cl)cc3)ccc2N2CCOCC2)cc1
- AC40: < 0.26 µM

Compound: CN1CCN(C(=O)c2cc3nc(-c4ccccc4)cc(-c4ccccc4)n3n2)CC1
- AC40: 2.23 µM

Compound: COc1ccc(NC(C)=O)cc1S(=O)(=O)Nc1ccc(S(=O)(=O)N2CCCCC2)cc1
- AC40: 2.62 µM

Compound: O=C(c1cn(Cc2ccccc2)nc1-c1ccc(Cl)cc1)N1CCN(c2ccccn2)CC1
- AC40: 3.28 µM

Compound: Cc1ccc(-c2n[nH]c(=O)c3ccccc23)cc1S(=O)(=O)Nc1ccc(F)cc1
- AC40: 0.293 µM

Compound: O=C(NCc1ccccn1)c1cccc(NS(=O)(=O)c2cccc(F)c2)c1
- AC40: 5.83 µM

Compound: CC(OC(=O)c1cccc(S(=O)(=O)Nc2cccc(C(F)(F)F)c2)c1)C(=O)Nc1ccc2c(c1)OCCO2 (configuration not stated)
- AC40: 3.57 µM

Compound: O=S(=O)(NCCc1ccncc1)c1ccc(Br)cc1
- AC40: 1.15 µM

Compound: COc1cc(NS(=O)(=O)c2ccc(Br)s2)cc(OC)c1
- AC40: 5.31 µM

Compound: COc1ccc(C)cc1S(=O)(=O)NC1CCCCC1
- AC40: 1.31 µM

Compound: CCOc1ccccc1N1CCN(C(=O)c2cc3ccccc3cc2OC)CC1
- AC40: 4.78 µM

Compound: COc1ccc(S(=O)(=O)Nc2cccc3c2O[C@H](CN(C)Cc2ccc(Cl)c(Cl)c2)[C@@H](C)CN([C@H](C)CO)C3=O)cc1
- AC40: 4.25 µM

Compound: CC(=O)c1cccc(NS(=O)(=O)c2cc(-c3cnc(C4CC4)o3)ccc2C)c1
- AC40: 6.63 µM

Compound: Cc1ccc(S(=O)(=O)NC23CC4CC(CC(C4)C2)C3)cc1
- AC40: 2.15 µM

Compound: Cc1ccc(-c2cc(C(=O)NCCCn3ccnc3)c3ccccc3n2)s1
- AC40: 11.1 µM

Compound: CCOc1ccc(NS(=O)(=O)c2cc(NC(=O)C3CC3)ccc2C)cc1Br
- AC40: 2.15 µM

Compound: CCCC(=O)Nc1ccc2c(c1)C(=O)N(C)[C@H]1CC[C@@H](CC(=O)NCc3cccc(F)c3)O[C@H]1CO2
- AC40: 0.762 µM

Compound: Cc1csc2c(=O)sc(NC(=O)c3ccco3)nc12
- AC40: 14.5 µM

Compound: O=C(CN1c2ccccc2Sc2ccccc21)NNC(=O)Nc1cccc(Cl)c1
- AC40: 17.1 µM

Compound: Cc1cccc(C(=O)Nc2cccc(S(=O)(=O)NCc3ccco3)c2)c1
- AC40: 3.29 µM

Compound: C[C@H](CO)N1C[C@H](C)[C@H](CN(C)Cc2ccc(C(=O)Nc3ccccc3N)cc2)Oc2ccc(NS(=O)(=O)c3ccc(F)cc3)cc2CC1=O
- AC40: 7.93 µM

Compound: COc1cc(S(=O)(=O)N(CCc2ccccc2)Cc2cccs2)ccc1-n1cnnn1
- AC40: 1.33 µM

Compound: Cc1cc(C)c(C)c(S(=O)(=O)NC2CCCCC2)c1C
- AC40: 0.607 µM

Compound: COc1ccc(S(=O)(=O)NCc2ccccc2)cc1Br
- AC40: 5.07 µM

Compound: C[C@@H]1CN([C@@H](C)CO)C(=O)c2cccc(NC(=O)c3ccncc3)c2O[C@@H]1CN(C)C
- AC40: 12 µM

Compound: CCOC(=O)N1CCN(S(=O)(=O)c2cc(OCC)ccc2OCC)CC1
- AC40: 4.56 µM

Compound: CC(C)CC#Cc1ccc2c(c1)O[C@H](CN(C)C(=O)Nc1ccccc1F)[C@@H](C)CN([C@@H](C)CO)S2(=O)=O
- AC40: 2.15 µM

Compound: CC1CCCC(NS(=O)(=O)c2ccc3c(c2)OCCO3)C1C (configuration not stated)
- AC40: 3.1 µM

Compound: O=C(Nc1ccccc1)c1ccc(NC2CCCCC2)c(S(=O)(=O)N2CCOCC2)c1
- AC40: 13.9 µM

Compound: Cc1ccc(C(=O)NCc2ccncc2)cc1S(=O)(=O)Nc1cccc(C)c1C
- AC40: 1.93 µM

Compound: COc1ccccc1NS(=O)(=O)c1cc(Cl)ccc1OC
- AC40: 15.9 µM

Compound: O=C(Nc1ccc(S(=O)(=O)NC2CCCCC2)cc1)c1ccc(Br)o1
- AC40: 1.66 µM

Compound: C[C@H](CO)N1C[C@H](C)[C@H](CN(C)Cc2ccc(C(=O)Nc3ccccc3N)cc2)Oc2ccc(NC(=O)Nc3cccc4ccccc34)cc2CC1=O
- AC40: 16.9 µM

Compound: C[C@H]1CN([C@@H](C)CO)C(=O)c2cccc(NC(=O)Nc3ccccc3)c2O[C@@H]1CN(C)Cc1ccc(C(=O)Nc2ccccc2N)cc1
- AC40: 11.3 µM
